Reference: paper PMC8119466, “A screen of FDA-approved drugs identifies inhibitors of protein tyrosine phosphatase 4A3 (PTP4A3 or PRL-3)” (Scientific Reports, 2021)
Counter-ions that a name gives are not always drawn. Like-named read-outs stand apart in the source and are kept apart here.

Key:
Format in all cases: biochemical
[1] = molecular target: T1, recombinant PRL-3 (Homo sapiens, UniProt O75365); test: In vitro phosphatase assay (DiFMUP hydrolysis), PRL-3; note: test concentration or dose not given here
T1 construct: 6xHis (N, cleaved yes); made in house; host or cells: E. coli One Shot BL21 Star
T1 sequence (O75365 whole entry): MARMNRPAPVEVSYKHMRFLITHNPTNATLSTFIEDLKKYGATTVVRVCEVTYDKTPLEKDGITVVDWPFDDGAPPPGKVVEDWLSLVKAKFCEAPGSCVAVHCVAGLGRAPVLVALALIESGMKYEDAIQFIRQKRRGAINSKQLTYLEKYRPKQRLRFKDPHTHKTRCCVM

[2] = molecular target: T2, recombinant PRL-1 (Homo sapiens, UniProt Q93096); test: In vitro phosphatase assay (DiFMUP hydrolysis), PRL-1; note: test concentration or dose not given here
T2 construct: 6xHis (N, cleaved yes); made in house; host or cells: E. coli One Shot BL21 Star
T2 sequence (Q93096 1-173): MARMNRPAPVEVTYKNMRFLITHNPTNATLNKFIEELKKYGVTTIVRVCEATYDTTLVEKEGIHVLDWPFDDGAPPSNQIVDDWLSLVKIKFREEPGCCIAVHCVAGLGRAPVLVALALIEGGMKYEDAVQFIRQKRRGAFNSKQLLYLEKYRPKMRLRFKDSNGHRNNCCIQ

[3] = molecular target: T3, recombinant PRL-2 (Homo sapiens, UniProt Q12974); test: In vitro phosphatase assay (DiFMUP hydrolysis), PRL-2;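 note: PRL-2 activity read as DiFMUP hydrolysis after 20 min at room temperature with drug, enzyme first pre-reduced at 4 °C for 20 min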
T3 construct: 6xHis (N, cleaved yes); made in house; host or cells: E. coli One Shot BL21 Star
T3 sequence (Q12974 1-167): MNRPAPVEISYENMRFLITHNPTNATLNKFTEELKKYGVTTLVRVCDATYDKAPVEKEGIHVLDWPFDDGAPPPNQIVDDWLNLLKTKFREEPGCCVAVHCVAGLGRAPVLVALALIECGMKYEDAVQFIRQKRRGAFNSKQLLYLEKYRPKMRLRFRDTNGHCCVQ

[4] = FDA-approved drug screen, compared to DMSO

Structure (SMILES)	% Phosphatase Activity (compared to DMSO) PRL-3 [1, 4]	% Phosphatase Activity (compared to DMSO) PRL-1 [2, 4]	% Phosphatase Activity (compared to DMSO) PRL-2 [3, 4]	% Phosphatase Activity (compared to DMSO) PRL-3 [1]	% Phosphatase Activity (compared to DMSO) PRL-1 [2]	% Phosphatase Activity (compared to DMSO) PRL-2 [3]
CCC(=O)NCC[C@@H]1CCc2ccc3c(c21)CCO3 [Ramelteon]	73%	91%	96%			
CCOC(=O)[C@H](CCc1ccccc1)N[C@@H](C)C(=O)N1[C@H](C(=O)O)C[C@@H]2CCC[C@@H]21 [Ramipril]	93%	84%	86%			
CNC(=C[N+](=O)[O-])NCCSCc1ccc(CN(C)C)o1 [Ranitidine]	103%	93%	102%			
COc1ccccc1OCC(O)CN1CCN(CC(=O)Nc2c(C)cccc2C)CC1.Cl.Cl (stereo not drawn) [Ranolazine 2HCl]	97%	107%	99%			
COc1ccccc1OCC(O)CN1CCN(CC(=O)Nc2c(C)cccc2C)CC1 (stereo not drawn) [Ranolazine]	118%	90%	99%			
CO[C@H]1C[C@@H]2CC[C@@H](C)[C@@](O)(O2)C(=O)C(=O)N2CCCC[C@H]2C(=O)O[C@H]([C@H](C)C[C@@H]2CC[C@@H](O)[C@H](OC)C2)CC(=O)[C@H](C)/C=C(\C)[C@@H](O)[C@@H](OC)C(=O)[C@H](C)C[C@H](C)/C=C/C=C/C=C/1C [Rapamycin (Sirolimus)]	75%	88%	89%			
C#CCN[C@@H]1CCc2ccccc21 [Rasagiline Mesylate]				99%	116%	130%
O=C(NC(Cc1cc(=O)[nH]c2ccccc12)C(=O)O)c1ccc(Cl)cc1 (stereo not drawn) [Rebamipide]	92%	88%	93%			
COCCCOc1ccnc(C[S+]([O-])c2nc3ccccc3[n-]2)c1C.[Na+] (stereo not drawn) [Rebeprazole sodium]	78%	97%	99%			
CCOc1ccccc1OC(c1ccccc1)C1CNCCO1.CS(=O)(=O)O (stereo not drawn) [Reboxetine mesylate]	99%	125%	118%			
CNC(=O)c1cc(Oc2ccc(NC(=O)Nc3ccc(Cl)c(C(F)(F)F)c3)c(F)c2)ccn1 [Regorafenib (BAY 73-4506)]	79%	86%	88%			
CCOc1cc(CC(=O)N[C@@H](CC(C)C)c2ccccc2N2CCCCC2)ccc1C(=O)O [Repaglinide]	87%	96%	81%			
COC(=O)[C@H]1[C@H]2C[C@@H]3c4[nH]c5cc(OC)ccc5c4CCN3C[C@H]2C[C@@H](OC(=O)c2cc(OC)c(OC)c(OC)c2)[C@@H]1OC [Reserpine]	92%	110%	105%			
CN(C)Cc1ccc(S(=O)(=O)n2ccc(/C=C/C(=O)NO)c2)cc1 [Resminostat]	90%	102%	113%			
Oc1cccc(O)c1 [Resorcinol]	77%	100%	88%			
Oc1ccc(/C=C/c2cc(O)cc(O)c2)cc1 [Resveratrol]	84%	107%	112%			

Structure (SMILES)	% Phosphatase Activity (compared to DMSO) PRL-3 [1, 4]	% Phosphatase Activity (compared to DMSO) PRL-1 [2, 4]	% Phosphatase Activity (compared to DMSO) PRL-2 [3, 4]	% Phosphatase Activity (compared to DMSO) PRL-3 [1]	% Phosphatase Activity (compared to DMSO) PRL-1 [2]	% Phosphatase Activity (compared to DMSO) PRL-2 [3]
C=C[C@]1(C)C[C@@H](OC(=O)CS[C@@H]2C[C@H]3CC[C@@H](C2)N3C)[C@]2(C)[C@H](C)CC[C@]3(CCC(=O)[C@H]32)[C@@H](C)[C@@H]1O [Retapamulin]	67%	85%	123%			
NC(=O)c1ncn([C@@H]2O[C@H](CO)[C@@H](O)[C@H]2O)n1 [Ribavirin]	83%	105%	108%			
CO[C@H]1/C=C/O[C@@]2(C)Oc3c(C)c(O)c4c(c3C2=O)C2=NC3(CCN(CC(C)C)CC3)NC2=C(NC(=O)/C(C)=C\C=C\[C@H](C)[C@H](O)[C@@H](C)[C@@H](O)[C@@H](C)[C@H](OC(C)=O)[C@@H]1C)C4=O [Rifabutin]	72%	61%	63%			
CO[C@H]1/C=C/O[C@@]2(C)Oc3c(C)c(O)c4c(O)c(c(/C=N/N5CCN(C)CC5)c(O)c4c3C2=O)NC(=O)/C(C)=C\C=C\[C@H](C)[C@H](O)[C@@H](C)[C@@H](O)[C@@H](C)[C@H](OC(C)=O)[C@@H]1C [Rifampin]	71%	58%	49%			
CO[C@H]1/C=C/O[C@@]2(C)Oc3c(C)c(O)c4c(O)c(c(/C=N/N5CCN(C6CCCC6)CC5)c(O)c4c3C2=O)NC(=O)/C(C)=C\C=C\[C@H](C)[C@H](O)[C@@H](C)[C@@H](O)[C@@H](C)[C@H](OC(C)=O)[C@@H]1C [Rifapentine]	74%	61%	57%			
CO[C@H]1/C=C/O[C@@]2(C)Oc3c(C)c(O)c4c(O)c(c5c(nc6cc(C)ccn65)c4c3C2=O)NC(=O)/C(C)=C\C=C\[C@H](C)[C@H](O)[C@@H](C)[C@@H](O)[C@@H](C)[C@H](OC(C)=O)[C@@H]1C [Rifaximin]	79%	64%	60%			
COc1cc(OC)c(/C=C/S(=O)(=O)Cc2ccc(OC)c(NCC(=O)O)c2)c(OC)c1 [Rigosertib (ON-01910)]	78%	95%	86%			
Cc1cc(/C=C/C#N)cc(C)c1Nc1ccnc(Nc2ccc(C#N)cc2)n1 [Rilpivirine]	136%	139%	116%			
CC(N)C12CC3CC(CC(C3)C1)C2 (stereo not drawn) [Rimantadine]	80%	91%	106%			
Cc1c(C(=O)NN2CCCCC2)nn(-c2ccc(Cl)cc2Cl)c1-c1ccc(Cl)cc1 [Rimonabant]	98%	103%	116%			
COC(=O)N(C)c1c(N)nc(-c2nn(Cc3ccccc3F)c3ncccc23)nc1N [Riociguat (BAY 63-2521)]	90%	99%	82%			
C[C@H]1CNCCCN1S(=O)(=O)c1cccc2cncc(F)c12 [Ripasudil (K-115)]	96%	95%	94%			
Cc1nc2n(c(=O)c1CCN1CCC(c3noc4cc(F)ccc34)CC1)CCCC2 [Risperidone]	88%	104%	94%			
CC(NCCc1ccc(O)cc1)C(O)c1ccc(O)cc1 (stereo not drawn) [Ritodrine HCl]	83%	113%	98%			
CC(C)c1nc(CN(C)C(=O)N[C@H](C(=O)N[C@@H](Cc2ccccc2)C[C@H](O)[C@H](Cc2ccccc2)NC(=O)OCc2cncs2)C(C)C)cs1 [Ritonavir]	90%	103%	108%			
